ChEMBL document CHEMBL5046233, “Nitroxoline and its derivatives are potent inhibitors of metallo-β-lactamases” (Eur J Med Chem, 2022)
Calls of active or inactive are those of the source. No cut-off for these calls is given here.

Experiments:
[1] = Inhibition of recombinant NDM-1 (unknown origin) using fluorocillin as substrate at 30 uM incubated for 30 mins by fluorescence based assay; conditions: Bacteria
[2] = Inhibition of recombinant NDM-1 (unknown origin) using fluorocillin as substrate at 10 uM incubated for 30 mins by fluorescence based assay; conditions: Bacteria
[3] = Inhibition of recombinant NDM-1 (unknown origin) using fluorocillin as substrate at 3 uM incubated for 30 mins by fluorescence based assay; conditions: Bacteria
Bacteria [4] = assay: Inhibition of recombinant VIM-1 (unknown origin) using fluorocillin as substrate at 3 uM incubated for 30 mins by fluorescence based assay
Bacteria [5] = assay: Inhibition of recombinant IMP-1 (unknown origin) using fluorocillin as substrate at 30 uM incubated for 30 mins by fluorescence based assay
Bacteria [6] = assay: Inhibition of recombinant NDM-1 (unknown origin) using fluorocillin as substrate in presence of ZnCl2 incubated for 30 mins by fluorescence based assay
Escherichia coli [7] = assay: Antimicrobial activity against Escherichia coli T2544 expressing VIM-1 assessed as inhibition of bacterial growth by CLSI protocol based broth microdilution assay; type: functional
Klebsiella pneumoniae [8] = assay: Antimicrobial activity against Klebsiella pneumoniae clinical isolate T2301 expressing NDM-1 assessed as inhibition of bacterial growth by CLSI protocol based broth microdilution assay; type: functional
Escherichia coli [9] = assay: Antimicrobial activity against Escherichia coli clinical isolate T2228 expressing VIM-1 assessed as inhibition of bacterial growth by CLSI protocol based broth microdilution assay; type: functional
Escherichia coli [10] = assay: Potentiation of imipenem-induced antibacterial activity against Escherichia coli T2359 expressing NDM-1 assessed as fold change in imipenem MIC at 32 mg/L by CLSI protocol based broth microdilution assay; type: functional
Escherichia coli [11] = assay: Potentiation of imipenem-induced antibacterial activity against Escherichia coli T2544 expressing VIM-1 assessed as fold change in imipenem MIC at 32 mg/L by CLSI protocol based broth microdilution assay; type: functional
Klebsiella pneumoniae [12] = assay: Potentiation of imipenem-induced antibacterial activity against Klebsiella pneumoniae clinical isolate T2301 expressing NDM-1 assessed as fold change in imipenem MIC at 32 mg/L by CLSI protocol based broth microdilution assay; type: functional
Escherichia coli [13] = assay: Potentiation of imipenem-induced antibacterial activity against Escherichia coli clinical isolate T2228 expressing VIM-1 assessed as fold change in imipenem MIC at 32 mg/L by CLSI protocol based broth microdilution assay; type: functional
Klebsiella pneumoniae [14] = assay: Potentiation of piperacillin-induced antibacterial activity against Klebsiella pneumoniae clinical isolate T2301 expressing NDM-1 assessed as piperacillin MIC at 32 mg/L by CLSI protocol based broth microdilution assay; type: functional
Klebsiella pneumoniae [15] = assay: Potentiation of meropenem-induced antibacterial activity against Klebsiella pneumoniae clinical isolate T2301 expressing NDM-1 assessed as meropenem MIC at 32 mg/L by CLSI protocol based broth microdilution assay; type: functional
Escherichia coli [16] = assay: Potentiation of piperacillin-induced antibacterial activity against Escherichia coli clinical isolate T2228 expressing VIM-1 assessed as piperacillin MIC at 32 mg/L by CLSI protocol based broth microdilution assay; type: functional
Escherichia coli [17] = assay: Potentiation of meropenem-induced antibacterial activity against Escherichia coli clinical isolate T2228 expressing VIM-1 assessed as meropenem MIC at 32 mg/L by CLSI protocol based broth microdilution assay; type: functional
Escherichia coli [18] = assay: Potentiation of imipenem-induced antibacterial activity against Escherichia coli T2351 expressing NDM-5 assessed as fold change in imipenem MIC at 32 mg/L by CLSI protocol based broth microdilution assay; type: functional
Citrobacter freundii [19] = assay: Potentiation of imipenem-induced antibacterial activity against Citrobacter freundii T2354 expressing VIM-4 assessed as fold change in imipenem MIC at 32 mg/L by CLSI protocol based broth microdilution assay; type: functional
Pseudomonas aeruginosa [20] = assay: Potentiation of imipenem-induced antibacterial activity against Pseudomonas aeruginosa T2229 expressing SPM-1 assessed as fold change in imipenem MIC at 32 mg/L by CLSI protocol based broth microdilution assay; type: functional
Enterobacter cloacae = assay: Potentiation of imipenem-induced antibacterial activity against Enterobacter cloacae T2218 expressing GIM-1 assessed as fold change in imipenem MIC at 32 mg/L by CLSI protocol based broth microdilution assay; type: functional
Escherichia coli [21] = assay: Potentiation of imipenem-induced antibacterial activity against Escherichia coli T2435 expressing KPC-2 assessed as fold change in imipenem MIC at 32 mg/L by CLSI protocol based broth microdilution assay; type: functional
Citrobacter freundii [22] = assay: Potentiation of imipenem-induced antibacterial activity against Citrobacter freundii T2431 expressing KPC-3 assessed as fold change in imipenem MIC at 32 mg/L by CLSI protocol based broth microdilution assay; type: functional
Klebsiella pneumoniae [23] = assay: Bactericidal activity against Klebsiella pneumoniae T2301 expressing NDM-1 assessed as killing rate at 0.5 X MIC measured after 24 hrs in presence of imipenem by time-kill assay relative to control; type: functional
Klebsiella pneumoniae [24] = assay: Antimicrobial activity against Klebsiella pneumoniae T2301 expressing NDM-1 assessed as assessed as inhibition of bacterial growth at 0.5XMIC measured after 24 hrs by time-kill assay; type: functional, organism-based
Escherichia coli [25] = assay: Synergistic antibacterial activity against Escherichia coli T2544 expressing VIM-1 assessed as fractional inhibitory concentration index in presence of imipenem by checkerboard assay; type: functional
HUVEC = assay: Cytotoxicity against HUVEC cells assessed as late apoptosis by analysing number of sub-diploid events at 0.03 to 100 ug/mL measured after 24 hrs by propidium iodide staining based flow cytometry analysis; type: toxicity, cell-based; conditions: human, dose 0.03-100 µg/ml
Serratia marcescens = assay: Potentiation of imipenem-induced antibacterial activity against Serratia marcescens T2352 expressing NDM-1 assessed as imipenem MIC at 32 mg/L by CLSI protocol based broth microdilution assay; type: functional
Pseudomonas aeruginosa [26] = assay: Potentiation of imipenem-induced antibacterial activity against Pseudomonas aeruginosa T1098 expressing IMP-7 assessed as imipenem MIC at 32 mg/L by CLSI protocol based broth microdilution assay; type: functional
Pseudomonas aeruginosa [27] = assay: Potentiation of imipenem-induced antibacterial activity against Pseudomonas aeruginosa T2357 expressing VIM-1 assessed as imipenem MIC at 32 mg/L by CLSI protocol based broth microdilution assay; type: functional
Pseudomonas aeruginosa [28] = assay: Potentiation of imipenem-induced antibacterial activity against Pseudomonas aeruginosa T2217 expressing VIM-2 assessed as imipenem MIC at 32 mg/L by CLSI protocol based broth microdilution assay; type: functional
Pseudomonas aeruginosa [29] = assay: Potentiation of imipenem-induced antibacterial activity against Pseudomonas aeruginosa T2282 expressing VIM-2 assessed as imipenem MIC at 32 mg/L by CLSI protocol based broth microdilution assay; type: functional
Pseudomonas aeruginosa [30] = assay: Potentiation of imipenem-induced antibacterial activity against Pseudomonas aeruginosa T2229 expressing SPM-1 assessed as imipenem MIC at 32 mg/L by CLSI protocol based broth microdilution assay; type: functional
Citrobacter freundii [31] = assay: Potentiation of imipenem-induced antibacterial activity against Citrobacter freundii T2431 expressing KPC-3 assessed as imipenem MIC at 32 mg/L by CLSI protocol based broth microdilution assay; type: functional
Escherichia coli [32] = assay: Potentiation of imipenem-induced antibacterial activity against Escherichia coli T2433 expressing OXA-48 assessed as imipenem MIC at 32 mg/L by CLSI protocol based broth microdilution assay; type: functional

Structure (SMILES): N#CCN(Cc1ccccc1)Cc1cc([N+](=O)[O-])c2cccnc2c1O
- inhibition [1]: 96%
- inhibition [2]: 88%
- inhibition [3]: 68%
- inhibition (Bacteria [4]): 98%
- inhibition (Bacteria [5]): 98%
- inhibition (Bacteria [6]): inactive
- MIC (Escherichia coli [7]): > 0.065 µg/mL
- MIC (Klebsiella pneumoniae [8]): > 0.066 µg/mL
- MIC (Escherichia coli [9]): > 0.067 µg/mL
- fold change (FC) (Escherichia coli [10]): 256
- fold change (FC) (Escherichia coli [11]): 64
- fold change (FC) (Klebsiella pneumoniae [12]): 64
- fold change (FC) (Escherichia coli [13]): 8
- MIC (Klebsiella pneumoniae [14]): 2.05 µg/mL
- MIC (Klebsiella pneumoniae [15]): 0.25 µg/mL
- MIC (Escherichia coli [16]): 1 µg/mL
- MIC (Escherichia coli [17]): 0.125 µg/mL
- fold change (FC) (Escherichia coli [18]): 8
- fold change (FC) (Citrobacter freundii [19]): 8
- fold change (FC) (Pseudomonas aeruginosa [20]): 16
- fold change (FC) (Enterobacter cloacae): 4
- fold change (FC) (Escherichia coli [21]): 1
- fold change (FC) (Citrobacter freundii [22]): 2
- Activity (Klebsiella pneumoniae [23]): >99.9%
- Activity (Klebsiella pneumoniae [24]): inactive
- fractional inhibitory concentration index (FICI) (Escherichia coli [25]): 0.265
- Activity (HUVEC): Toxic
- MIC (Serratia marcescens): 0.25 µg/mL
- MIC (Pseudomonas aeruginosa [26]): 0.016 µg/mL
- MIC (Pseudomonas aeruginosa [27]): 0.008 µg/mL
- MIC (Pseudomonas aeruginosa [28]): 0.016 µg/mL
- MIC (Pseudomonas aeruginosa [29]): 0.008 µg/mL
- MIC (Pseudomonas aeruginosa [30]): 0.032 µg/mL
- MIC (Citrobacter freundii [31]): 0.004 µg/mL
- MIC (Escherichia coli [32]): 0.002 µg/mL
